Reference: US10988440B2, “FTO inhibitors” (National Institute of Biological Sciences, Beijing, priority 2015, dated 2021)
Like-named read-outs stand apart in the source and are kept apart here.

Tests used:
FTO = FTO (Homo sapiens, UniProt Q9C0B1); assay: demethylation reaction catalyzed by FTO (enzymatic inhibition, HPLC-MS/MS of N6-mA and A); format: biochemical
COMT enzyme = biological target: T1, COMT enzyme (Homo sapiens, UniProt P21964); assay: COMT inhibition assay (reaction kinetic model, esculetin fluorescence); format: biochemical; settings: for inhibition at 0.05 µM: read-out: COMT inhibition at 50 nM; for inhibition at 0.2 µM: read-out: COMT inhibition at 200 nM
T1 construct: COMT (μM); other: at 200 nM; other: at 50 nM; The reaction system contains 1U COMT enzyme, test article, 4 μM Esculetin, 0.6 mM AdoMet, 50 mM K3PO4, and 10 mM MgCl2
T1 sequence (P21964 1-271): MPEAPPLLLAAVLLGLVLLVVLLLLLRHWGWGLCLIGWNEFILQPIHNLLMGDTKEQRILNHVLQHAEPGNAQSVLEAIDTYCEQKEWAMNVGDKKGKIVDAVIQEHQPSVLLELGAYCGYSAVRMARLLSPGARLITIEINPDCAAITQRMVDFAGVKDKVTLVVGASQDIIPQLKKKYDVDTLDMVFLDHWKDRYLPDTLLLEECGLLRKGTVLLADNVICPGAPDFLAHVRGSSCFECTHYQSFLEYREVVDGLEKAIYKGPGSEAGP

[1] = Rat liver microsome stability assay; format: in vitro ADME; settings: liver microsomes, pH 7.4, rat liver microsome 1 mg/ml, test compound 2 μM, NADPH 1 mM, 37° C.; for microsomal CLint at 1 h, 2 µM: read-out: Rat Liver Microsome CLint (μL/min/mg protein); for half-life at 1 h, 2 µM: read-out: Rat Liver Microsome T½
[2] = exemplary IC50 data of representative compounds, read-out: Enzymatic inhibition (IC50)
[3] = selectivity table, read-out: FTO

Chain of FTO (Q9C0B1 whole entry): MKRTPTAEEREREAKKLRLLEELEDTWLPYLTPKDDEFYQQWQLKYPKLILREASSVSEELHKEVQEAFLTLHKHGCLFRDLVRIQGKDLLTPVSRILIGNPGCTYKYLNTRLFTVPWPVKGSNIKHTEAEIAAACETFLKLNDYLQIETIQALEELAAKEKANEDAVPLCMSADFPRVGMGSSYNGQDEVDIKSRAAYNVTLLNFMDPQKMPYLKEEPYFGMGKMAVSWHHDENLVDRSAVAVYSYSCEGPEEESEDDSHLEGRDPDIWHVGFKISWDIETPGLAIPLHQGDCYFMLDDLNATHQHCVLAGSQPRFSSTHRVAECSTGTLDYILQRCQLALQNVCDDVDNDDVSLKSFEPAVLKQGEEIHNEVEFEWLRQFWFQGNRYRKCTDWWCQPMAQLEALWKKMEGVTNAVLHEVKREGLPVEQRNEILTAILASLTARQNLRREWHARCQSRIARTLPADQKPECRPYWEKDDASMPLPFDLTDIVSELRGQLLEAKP

IC50 (FTO; [2]) | IC50 (FTO; [3]) | inhibition at 0.05 µM (COMT enzyme) | inhibition at 0.2 µM (COMT enzyme) | microsomal CLint at 1 h, 2 µM [1] | half-life at 1 h, 2 µM [1] | IC50 (COMT enzyme) | Structure (SMILES)
< 1000 nM | 750 nM | 35% | 64% | 10.3 µL/min/mg | 1.12 h |  | N#C/C(C(=O)N1CCCCC1)=C(/N)c1cc(O)c(O)c([N+](=O)[O-])c1 [Compound 661N, 3-amino-3-(3,4-dihydroxy-5-nitrophenyl)-2-(piperidine-1-carbonyl)acrylonitrile]
 |  |  |  | 17.7 µL/min/mg | 0.653 h |  | CCN(CC)C(=O)/C(C#N)=C/c1cc(O)c(O)c([N+](=O)[O-])c1 [Entacapone, entacapone, reference compound]
< 1000 nM | 750 nM | -3% | 33% | 1.1 µL/min/mg | 10.5 h |  | N#C/C(=C(/O)c1cc(O)c(O)c([N+](=O)[O-])c1)c1cnc(C(=O)O)cn1 [Compound 697, (E)-5-(1-cyano-2-(3,4-dihydroxy-5-nitrophenyl)-2-hydroxyvinyl) pyrazine-2-carboxylic Acid]
 |  |  |  | 0.1 µL/min/mg | 116 h | 551 nM | CCN(CC)C(=O)/C(C#N)=C(\O)c1cc(O)c(O)c([N+](=O)[O-])c1 [Compound 347, 2-cyano-3-(3,4-dihydroxy-5-nitrophenyl)-N,N-diethyl-3-oxopropanamide]
< 1000 nM | 500 nM | 39% | 74% | 10.9 µL/min/mg | 1.06 h |  | N#C/C(=C(/O)c1cc(O)c(O)c([N+](=O)[O-])c1)c1ccncn1 [Compound 525, (E)-3-(3,4-dihydroxy-5-nitrophenyl)-3-hydroxy-2-(pyrimidin-4-yl)acrylonitrile]
< 1000 nM | 750 nM | 33% | 80% | 9 µL/min/mg | 1.28 h |  | N#C/C(=C(/O)c1cc(O)c(O)c([N+](=O)[O-])c1)c1ccccn1 [Compound 351, 3-(3,4-dihydroxy-5-nitrophenyl)-3-oxo-2-(pyridin-2-yl)propanenitrile]
> 1000 nM |  |  |  |  |  |  | N#C/C(C(=O)c1cscn1)=C(/N)c1cc(O)c(O)c([N+](=O)[O-])c1 [Compound 711N, ammonium (Z)-5-(1-amino-2-cyano-3-oxo-3-(thiazol-4-yl)prop-1-enyl)-2-hydroxy-3-nitrophenolate]
< 1000 nM |  |  |  |  |  |  | N#C/C(=C(/N)c1cc(O)c(O)c([N+](=O)[O-])c1)c1cnc(C(=O)O)cn1 [Compound 697N]
< 1000 nM |  |  |  |  |  |  | CCNC(=O)/C(C#N)=C(\O)c1cc(O)c(O)c([N+](=O)[O-])c1 [Compound 691, (Z)-2-cyano-3-(3,4-dihydroxy-5-nitrophenyl)-N-ethyl-3-hydroxyacrylamide]
< 1000 nM |  |  |  |  |  |  | N#C/C(C(=O)Nc1ncns1)=C(/O)c1cc(O)c(O)c([N+](=O)[O-])c1 [Compound 668, 2-cyano-3-(3,4-dihydroxy-5-nitrophenyl)-3-hydroxy-N-(1,2,4-thiadiazol-5-yl)acrylamide]
~1000 nM | 1500 nM | 9% | 24% | 0.5 µL/min/mg | 23.1 h |  | N#C/C(=C(/O)c1cc(O)c(O)c([N+](=O)[O-])c1)c1nccs1 [Compound 503, 3-(3,4-dihydroxy-5-nitrophenyl)-3-oxo-2-(thiazol-2-yl)propanenitrile]
< 1000 nM |  |  |  |  |  |  | N#C/C(C(=O)NC1CC1)=C(/O)c1cc(O)c(O)c([N+](=O)[O-])c1 [Compound 692, (Z)-2-cyano-N-cyclopropyl-3-(3,4-dihydroxy-5-nitrophenyl)-3-hydroxyacrylamide]
< 1000 nM |  |  |  |  |  |  | N#C/C(=C\c1cc(O)c(O)c([N+](=O)[O-])c1)C(=O)NCC(=O)O [Compound 709, (E)-2-(2-cyano-3-(3,4-dihydroxy-5-nitrophenyl)acrylamido)acetic Acid]

More lines, now with the values behind:

Structure (SMILES) | IC50 (FTO; [2]) | IC50 (FTO; [3]) | inhibition at 0.05 µM (COMT enzyme) | inhibition at 0.2 µM (COMT enzyme) | microsomal CLint at 1 h, 2 µM [1] | half-life at 1 h, 2 µM [1] | IC50 (COMT enzyme)
N#C/C(=C\c1cc(O)c(O)c([N+](=O)[O-])c1)C(=O)Nc1nccs1 [Compound 331, (E)-2-cyano-3-(3,4-dihydroxy-5-nitrophenyl)-N-(thiazol-2-yl)acrylamide] | ~1000 nM | 1000 nM | 25% | 54% | 7.4 µL/min/mg | 1.56 h | 
N#C/C(=C\c1cc(O)c(O)c([N+](=O)[O-])c1)C(=O)N1CCCCC1 [Compound 371, (E)-3-(3,4-dihydroxy-5-nitrophenyl)-2-(piperidine-1-carbonyl)acrylonitrile] |  |  | 33% | 71% | 43 µL/min/mg | 0.268 h | 
COc1cc(/C(O)=C(\C#N)c2cnccn2)cc([N+](=O)[O-])c1O [Compound 524] | ~1000 nM |  |  |  |  |  | 
N#C/C(=C(/O)c1cc(O)c(O)c([N+](=O)[O-])c1)c1nc2ccccc2s1 [Compound 359] | > 1000 nM |  |  |  |  |  | 
N#C/C(=C\c1cc(O)c(O)c([N+](=O)[O-])c1)C(=O)N1CCC1 [Compound 687] | < 1000 nM | 1000 nM |  |  | 284 µL/min/mg | 0.0407 h | 33 nM
N#C/C(=C\c1cc(O)c(O)c([N+](=O)[O-])c1)C(=O)c1cscn1 [Compound 698] | > 1000 nM |  |  |  |  |  | 
N#C/C(=C\c1cc(O)c(O)c([N+](=O)[O-])c1)c1cccnc1 [Compound 319] | < 1000 nM |  |  |  |  |  | 
N#C/C(=C\c1cc(O)c(O)c([N+](=O)[O-])c1)c1c[n+]([O-])ccn1 [Compound 520] | < 1000 nM |  |  |  |  |  | 
N#CC(=Cc1cc(O)c(O)c([N+](=O)[O-])c1)c1ccccn1 (stereo in doubt) [Compound 315, (E)-3-(3,4-dihydroxy-5-nitrophenyl)-2-(pyridin-2-yl)acrylonitrile] | ~1000 nM | 1000 nM | 19% | 70% | 310 µL/min/mg | 0.0373 h | 
N#C/C(=C\c1cc(O)c(O)c([N+](=O)[O-])c1)C(=O)NCCO [Compound 688, (E)-2-cyano-3-(3,4-dihydroxy-5-nitrophenyl)-N-(2-hydroxyethyl)acrylamide] | > 1000 nM |  |  |  |  |  | 
N#CC(=Cc1cc(O)c(O)c([N+](=O)[O-])c1)c1cccnn1 (stereo in doubt) [Compound 505, (E)-3-(3,4-dihydroxy-5-nitrophenyl)-2-(pyridazin-3-yl)acrylonitrile] | < 1000 nM |  |  |  |  |  | 
N#C/C(=C\c1cc(O)c(O)c([N+](=O)[O-])c1)C(=O)NC1COC1 [Compound 713] | < 1000 nM |  |  |  |  |  | 
N#C/C(=C\c1cc(O)c(O)c([N+](=O)[O-])c1)C(=O)Nc1ccccc1 [Compound 318] | ~1000 nM |  |  |  |  |  | 
N#C/C(=C\c1cc(O)c(O)c([N+](=O)[O-])c1)C(=O)N1CCCC1 [Compound 317] | > 1000 nM |  |  |  |  |  | 
COc1cc(/C(O)=C(\C#N)C(=O)NCc2ccncn2)cc([N+](=O)[O-])c1O [Compound 674] | > 1000 nM |  |  |  |  |  | 
N#C/C(=C\c1cc(O)c(O)c([N+](=O)[O-])c1)c1ncns1 [Compound 656, (E)-3-(3,4-dihydroxy-5-nitrophenyl)-2-(1,2,4-thiadiazol-5-yl)acrylonitrile] | < 1000 nM |  |  |  |  |  | 
N#C/C(=C\c1cc(O)c(O)c([N+](=O)[O-])c1)C(=O)NCc1ccccc1 [Compound 366] | > 1000 nM |  |  |  |  |  | 
N#C/C(=C\c1cc(O)c(O)c([N+](=O)[O-])c1)C(=O)N1CCOCC1 [Compound 382] | > 1000 nM |  |  |  |  |  | 
